Results published in patent US9394555B2, “Compositions comprising a polypeptide having cellulolytic enhancing activity and a dioxy compound and uses thereof” (priority 2010, dated 2016).
Where two headings read alike, the source gives them in different places.

How the values were obtained:
[1] = biological target: T1, T. aurantiacus GH61A polypeptide (Thermoascus aurantiacus, UniProt G3XAP7, N13Y); format: biochemical; conditions: for hydrolysis of AVICEL in the presence of both T. aurantiacus GH61A polypeptide and dioxy compound relative to inhibition by the dioxy compound / dioxy compound effect(no GH61): dioxy compound 1 mM; for hydrolysis of AVICEL in the presence of both T. aurantiacus GH61A polypeptide and dioxy compound relative to inhibition by the dioxy compound: GH61A polypeptide 2 mg per g cellulose, cellulose 29.5 mg per ml; for dioxy compound effect(no GH61): AVICEL 29.5 mg cellulose per ml; for dioxy compound effect(no GH61) (Equation 3), ratio of percent conversion with/without dioxy compound: day 1 to day 8
Protocol: The cellulase preparation is designated herein as “Trichoderma reesei cellulase composition” unless specified otherwise.
Later experiments were mixed thoroughly prior to incubation in an IsoTemp incubator (Fisher Scientific, Hampton, N.H., USA) and prior to sampling for analysis, but were not continuously mixed.
Data were processed using MICROSOFT EXCEL™ software.

[2] = biological target: T1, T. aurantiacus GH61A polypeptide; assay: Microcrystalline cellulose conversion assay II (Examples 10, 11), T. reesei CEL7A cellobiohydrolase I + A. oryzae CEL3A beta-glucosidase; format: biochemical; conditions: dioxy compound 0.1% w/w alone, no enzymes; 72 hours, 50° C.
Protocol: A 5% microcrystalline cellulose slurry was prepared by addition of 2.5 g of AVICEL® PH101 to a graduated 50 ml screw-cap conical tube followed by approximately 40 ml of deionized water. Each conical tube was then mixed thoroughly by shaking/vortexing, and adjusted to 50 ml total with deionized water and mixed again. For samples containing dioxy compounds, a similar slurry was prepared by the addition of 100 mg of solid dioxy compound and 2.5 g of AVICEL® PH101 to a graduated 50 ml screw-cap conical tube followed by approximately 40 ml of deionized water. Each conical tube was then mixed thoroughly by shaking/vortexing, and adjusted to 50 ml total with deionized water and mixed again.
The dioxy compounds assayed include caffeic acid, dichlorophenolindophenol (DCPIP), ethyl gallate, gallic acid, 3,4-dihydroxybenzoic acid, pyrocatechol, pyrogallol, sinapinic acid (3,5 dimethoxy-4-hydroxy cinnamic acid), and tannic acid.
In all cases, the contents of the tube (5% microcrystalline cellulose slurry with or without 0.2% dioxy compound) were then quickly transferred to a 100 ml beaker and stirred rapidly with a magnetic stirrer. Five hundred μl aliquots of the 5% AVICEL® slurry were pipetted into wells of a 2.0 ml 96-deepwell plate (Axygen, Union City, Calif.) using a 1000 μl micropipette with a wide aperture tip (end of tip cut off about 2 mm from the base). One hundred μl of deionized water and 300 μl of 3.33 mM MnSO4-500 mM sodium acetate pH 5 were then added to each well. Enzyme mixtures were prepared and then added simultaneously to all wells in a volume of 100 μl, for a total of 1 ml in each reaction. […] All experiments reported were performed in triplicate.
Primary analysis of the hydrolysis reactions was performed using an AGILENT® 1100 HPLC with CHEMSTATION® software equipped with an AMINEX™ HPX-87H column. After approximately 4 days, the deep-well plate was removed from the incubator and chilled overnight to 4° C. The plate was then mixed well by inversion and briefly centrifuged at 52×g in a SORVALL® RT7 centrifuge for 10 seconds. Samples were then mixed by pipetting, and 200 μl from each well were transferred to a MULTISCREEN® HV centrifuge filter plate assembly. The centrifuge filter plate assembly was centrifuged at 2000 rpm in a SORVALL® RT7 centrifuge for 20 minutes. […] Sugars were detected using a refractive index detector with quantification by integration compared to purified sugar standards.
All HPLC data processing was performed using MICROSOFT EXCEL™ software. […] In this assay only glucose was measured since beta-glucosidase was at high levels in all samples but the controls. The degree of cellulose conversion was calculated using Equation 1. Triplicate data points were averaged and standard deviation was calculated.
The microcrystalline cellulose hydrolysis assay was performed as described in Example 10.
Data were collected and analyzed, as described in Example 10, after 72 hours of incubation at 50° C.

[3] = tested on: T. terrestris GH61E polypeptide; assay: Microcrystalline cellulose conversion assay I (Examples 8, 9) with T. terrestris GH61E polypeptide; format: biochemical, Thielavia terrestris; conditions: 96 hours
Protocol: (§1) A 5% microcrystalline cellulose slurry was prepared by addition of 2.5 g of AVICEL®PH101 (Sigma-Aldrich, St. Louis, Mo., USA) to a graduated 50 ml screw-cap conical tube followed by 15 ml of 1 M sodium acetate pH 5 and 1 ml of 100 mM MnSO4 and approximately 20 ml of deionizer water. Each conical tube was then mixed thoroughly by shaking/vortexing, and adjusted to 50 ml total with deionized water and mixed again. Contents of the tube were then quickly transferred to a 100 ml beaker and stirred rapidly with a magnetic stirrer. Five hundred μl aliquots of the 5% AVICEL® slurry were pipetted into wells of a 2.0 ml 96-deepwell plate (Axygen, Union City, Calif., USA) using a 1000 μl micropipette with a wide aperture tip (end of tip cut off about 2 mm from the base). Three hundred μl of either deionized water or a 1% dioxy compound solution (dissolved in deionized water) was added to each well.
(§2) The dioxy compounds assayed include caffeic acid (Sigma-Aldrich, St. Louis, Mo., USA), dichlorophenolindophenol (DCPIP; Sigma-Aldrich, St. Louis, Mo., USA), ethyl gallate (Sigma-Aldrich, St. Louis, Mo., USA), gallic acid (Sigma-Aldrich, St. Louis, Mo., USA), 3,4-dihydroxybenzoic acid (Sigma-Aldrich, St. Louis, Mo., USA), pyrocatechol (Sigma-Aldrich, St. Louis, Mo., USA), pyrogallol (Sigma-Aldrich, St. Louis, Mo., USA), sinapinic acid (3,5 dimethoxy-4-hydroxy cinnamic acid; Apin Chemicals LTD, Abingdon, UK), and tannic acid (Sigma-Aldrich, St. Louis, Mo., USA).
(§3) Enzyme mixtures were prepared and then added simultaneously to all wells in a volume of 200 μl, for a total of 1 ml in each reaction. […] All experiments reported were performed in triplicate.
(§4) After approximately 4 days, the deep-well plate was removed from the incubator and chilled overnight to 4° C. The plate was then mixed well by inversion and briefly centrifuged at 52×g in a SORVALL® RT7 centrifuge (Thermo Fisher Scientific, Waltham, Mass., USA) for 10 seconds. Samples were then mixed by pipetting, and 200 μl from each well were transferred to a MULTISCREEN® HV centrifuge filter plate assembly (Millipore, Bedford, Mass., USA). The centrifuge filter plate assembly was centrifuged at 2000 rpm in a SORVALL® RT7 centrifuge for 20 minutes. […] Sugars were detected using a refractive index detector (Agilent Technologies, Inc., Santa Clara, Calif., USA) with quantification by integration compared to purified sugar standards.
(§5) In this assay only glucose was measured since beta-glucosidase was at high levels in all samples but the controls.
(§6) A limit digest was performed to determine the total concentration accessible glucose equivalents using 100 mg of T. reesei cellulase (CELLIC™ CTec, Novozymes A/S, Bagsvaerd, Denmark) per gram cellulose, Triplicate data points were averaged and standard deviation was calculated.

[4] = tested on: T. aurantiacus CEL5A endoglucanase II and P. brasilianum CEL3A beta-glucosidase; assay: Microcrystalline cellulose conversion assay I (Examples 8, 9) without GH61 polypeptide; format: biochemical, Thermoascus aurantiacus; Penicillium brasilianum; conditions: dioxy compound 0.3% w/w + endoglucanase II + beta-glucosidase (5 mg/g each), no GH61; 96 hours, at either 50° C. or 60° C.
Protocol: as §1, §2, §3, §4, §5, §6

[5] = AVICEL 14 mg cellulose per ml, dioxy compound 5 mM, T. aurantiacus GH61A polypeptide 0.4 mg per g cellulose, 1, 3, and 7 days
[6] = AVICEL, T. reesei cellulase composition, dioxy compound 5 mM, T. aurantiacus GH61A polypeptide present, day 1
[7] = AVICEL, T. reesei cellulase composition, dioxy compound 5 mM, T. aurantiacus GH61A polypeptide present, day 5
[8] = AVICEL, T. reesei cellulase composition, dioxy compound 5 mM, T. aurantiacus GH61A polypeptide present, day 8
[9] = AVICEL, T. reesei cellulase composition, dioxy compound 5 mM
[10] = AVICEL, T. reesei cellulase composition, dioxy compound 5 mM, day 5 (Example 24)
[11] = dioxy compound 0.3% w/w + T. terrestris GH61E polypeptide (10 mg/g) + endoglucanase II + beta-glucosidase (5 mg/g each), 50° C.
[12] = dioxy compound 0.3% w/w + T. terrestris GH61E polypeptide (10 mg/g) + endoglucanase II + beta-glucosidase (5 mg/g each), 60° C.

T1 sequence (G3XAP7 whole entry N13Y): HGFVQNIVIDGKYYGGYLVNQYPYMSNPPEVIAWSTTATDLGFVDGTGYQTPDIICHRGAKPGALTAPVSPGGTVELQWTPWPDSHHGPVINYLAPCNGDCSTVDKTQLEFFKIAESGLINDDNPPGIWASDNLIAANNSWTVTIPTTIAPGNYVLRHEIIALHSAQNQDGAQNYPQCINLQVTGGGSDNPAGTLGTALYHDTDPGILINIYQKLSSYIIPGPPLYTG

## OCCCO [1,3-propanediol]
[1]; [5]
  dioxy compound effect(+GH61) (Equation 4): greater than 1
[1]; AVICEL 14 mg cellulose per ml, dioxy compound 5 mM, T. aurantiacus GH61A polypeptide 0.4 mg per g cellulose, 1, 3, and 7 days, increasing as hydrolysis progressed
  GH61 effect (Equation 5): greater than 1
[1]; AVICEL 14 mg cellulose per ml, dioxy compound 5 mM, 1, 3, and 7 days, especially early stages
  dioxy compound effect(no GH61) (Equation 3): greater than 1

## CC(O)CC(C)O (centres unmarked) [2,4-pentanediol]
[1]; [5]
  dioxy compound effect(+GH61) (Equation 4): greater than 1
[1]; AVICEL 14 mg cellulose per ml, dioxy compound 5 mM, T. aurantiacus GH61A polypeptide 0.4 mg per g cellulose, later hydrolysis stages (day 7)
  GH61 effect (Equation 5): greater than 1
[1]; AVICEL 14 mg cellulose per ml, dioxy compound 5 mM, day 1
  dioxy compound effect(no GH61) (Equation 3): greater than 1

## COc1cccc(OC)c1O [2,6-dimethoxyphenol]
[1]
  hydrolysis of AVICEL in the presence of both T. aurantiacus GH61A polypeptide and dioxy compound relative to inhibition by the dioxy compound: overall enhancement of cellulolysis

## O=C(O)c1ccc(O)c(O)c1 [3,4-dihydroxybenzoic acid]
[2]
  conversion (hydrolysis) of the microcrystalline cellulose: no significant hydrolysis

## CCOCC(O)CO (centres unmarked) [3-ethoxy-1,2-propanediol, 3-ethyoxy-1,2-propanediol]
[1]; 3 days
  dioxy compound effect(no GH61): 1.11±0.0167
[1]; 7 days
  dioxy compound effect(no GH61): 1.20±0.0210

## Oc1ccc(Cl)cc1O [4-chloro-1,2-benzenediol]
[1]; [6]
  dioxy compound effect(+GH61) (Equation 4): increased
[1]; [7]
  dioxy compound effect(+GH61) (Equation 4): less than 1
[1]; [8]
  dioxy compound effect(+GH61) (Equation 4): less than 1
[1]; [9]
  dioxy compound effect(no GH61) (Equation 3), ratio of percent conversion with/without dioxy compound: less than 1
[1]; AVICEL, T. reesei cellulase composition, dioxy compound 5 mM, day 1 (Example 24)
  GH61 effect (Equation 5), ratio of percent conversion with/without GH61 polypeptide: greater than 1
[1]; [10]
  GH61 effect (Equation 5): greater than 1

## O=[N+]([O-])c1ccc(O)c(O)c1 [4-nitro-1,2-benzenediol]
[1]; [6]
  dioxy compound effect(+GH61) (Equation 4): less than 1
[1]; [7]
  dioxy compound effect(+GH61) (Equation 4): less than 1
[1]; [8]
  dioxy compound effect(+GH61) (Equation 4): less than 1
[1]; [9]
  dioxy compound effect(no GH61) (Equation 3), ratio of percent conversion with/without dioxy compound: less than 1
[1]; [10]
  GH61 effect (Equation 5): greater than 1
[1]; AVICEL, T. reesei cellulase composition, dioxy compound 5 mM, day 8 (Example 24)
  GH61 effect (Equation 5): greater than 1

## O=C1C=CC(=Nc2cc(Cl)c(O)c(Cl)c2)C=C1 [DCPIP, dichlorophenolindophenol]
[2]
  conversion (hydrolysis) of the microcrystalline cellulose: no significant hydrolysis

## O=C(O)/C=C/c1ccc(O)c(O)c1 [caffeic acid]
[3]; [11]
  conversion of microcrystalline cellulose: 4.4±0.1%
[3]; [12]
  conversion of microcrystalline cellulose: 7.0±0.1%
[4]
  change in conversion of microcrystalline cellulose compared to the enzymes in the absence of the dioxy compound: no significant change
[2]
  conversion (hydrolysis) of the microcrystalline cellulose: no significant hydrolysis

## COC(=O)c1ccc(O)cc1 [methyl-4-hydroxybenzoate]
[1]
  hydrolysis of AVICEL in the presence of both T. aurantiacus GH61A polypeptide and dioxy compound relative to inhibition by the dioxy compound: overall enhancement of cellulolysis

## COc1cc(C=CC(=O)O)cc(OC)c1O [sinapinic acid, 3,5 dimethoxy-4-hydroxy cinnamic acid]
[3]; [11]
  conversion of microcrystalline cellulose: 6.3±0.1%
[3]; [12]
  conversion of microcrystalline cellulose: 9.2±0.1%
[4]
  change in conversion of microcrystalline cellulose compared to the enzymes in the absence of the dioxy compound: no significant change

## O=C(OC[C@H]1O[C@@H](OC(=O)c2cc(O)c(O)c(OC(=O)c3cc(O)c(O)c(O)c3)c2)[C@H](OC(=O)c2cc(O)c(O)c(OC(=O)c3cc(O)c(O)c(O)c3)c2)[C@@H](OC(=O)c2cc(O)c(O)c(OC(=O)c3cc(O)c(O)c(O)c3)c2)[C@@H]1OC(=O)c1cc(O)c(O)c(OC(=O)c2cc(O)c(O)c(O)c2)c1)c1cc(O)c(O)c(OC(=O)c2cc(O)c(O)c(O)c2)c1 [tannic acid]
[3]; [11]
  conversion of microcrystalline cellulose: 5.7±0.1%
[3]; [12]
  conversion of microcrystalline cellulose: 6.0±0.2%
[4]
  change in conversion of microcrystalline cellulose compared to the enzymes in the absence of the dioxy compound: no significant change

## O=C(O)C(O)C(O)C(=O)O (centres unmarked) [tartrate, tartaric acid]
[1]; 3 days
  dioxy compound effect(no GH61): 0.984±0.00843
[1]; 7 days
  dioxy compound effect(no GH61): 1.02±0.0573

B1: T. terrestris GH61E polypeptide: GH61E polypeptide having cellulolytic enhancing activity (SEQ ID NO: 8), recombinantly produced in Aspergillus oryzae JaL250 (protein, listed as Thielavia terrestris)
chain: MLANGAIVFLAAALGVSGHYTWPRVNDGADWQQVRKADNWQDNGYVGDVTSPQIRCFQATPSPAPSVLNTTAGSTVTYWANPDVYHPGPVQFYMARVPDGEDINSWNGDGAVWFKVYEDHPTFGAQLTWPSTGKSSFAVPIPPCIKSGYYLLRAEQIGLHVAQSVGGAQFYISCAQLSVTGGGSTEPPNKVAFPGAYSATDPGILINIYYPVPTSYQNPGPAVFSC
[3]; T. terrestris GH61E polypeptide (10 mg per g cellulose) + endoglucanase II + beta-glucosidase (5 mg/g each), no dioxy compound, 50° C.
  conversion of microcrystalline cellulose: 2.8±0.1%
[3]; T. terrestris GH61E polypeptide (10 mg per g cellulose) + endoglucanase II + beta-glucosidase (5 mg/g each), no dioxy compound, 60° C.
  conversion of microcrystalline cellulose: 3.1±0.1%
